The subject of assay [1] is aromatase. The assay is described as follows: Assay of aromatase-inhibiting action (in vivo), inhibition of DHEAS-induced cornification of vaginal smear. Further details: species or system rat. Conditions: for Inhibition rate (cornification-inhibiting action against cornification in the solvent administration group): mature female rats after enucleation of the pituitary gland, 2 mg/kg test compound orally with 16 mg/kg DHEAS once a day, 4 days, smears of day 3 to 5. As for the experimental part:
(2) Assay of aromatase-inhibiting action (in vivo)
Aromatase-inhibiting action was assayed according to the method developed by G. H. Deckers and A. H. W. M. Schuurs (Journal of Steroid Biochemistry,32, 625-631, (1989)).
Namely, groups of mature female rats at one week after enucleation of the pituitary gland were used, each group consisting of 8 to 10 animals. 16 mg/kg of dehydroepiandrosterone sulfate (DHEAS) and 5 ml/kg of a solvent (physiological saline containing 2% polysorbate 80), or DHEAS and 2 mg/kg of a test compound suspended in the solvent were orally administered to each rat once a day for the succeeding 4 days. For 6 days starting from the next day of the first administration, vaginal smear was sampled and observed by a microscope after being stained with Giemsa staining solution. Cornification of the vaginal smear with DHEAS was observed from 3 days after the first administration, and its action disappeared 6 days thereafter. Therefore, the cornification smear number was assumed to be the total of 3 days from the third day to fifth day after the initiation of administration. A cornification-inhibiting action with a test compound was expressed as the rate against cornification in the solvent administration group.
In this connection, the cornification of vaginal smear is caused by estrogens biosynthesized from DHEAS by aromatase, and therefore, when aromatase is inhibited, inhibition of cornification is observed.

The target of assay [2] is T1, aromatase (Homo sapiens, UniProt P11511).
T1 construct: 150 μg of freeze dried human placental microsome; from tissue; host or cells: human placenta, microsomes
T1 sequence (P11511 1-503): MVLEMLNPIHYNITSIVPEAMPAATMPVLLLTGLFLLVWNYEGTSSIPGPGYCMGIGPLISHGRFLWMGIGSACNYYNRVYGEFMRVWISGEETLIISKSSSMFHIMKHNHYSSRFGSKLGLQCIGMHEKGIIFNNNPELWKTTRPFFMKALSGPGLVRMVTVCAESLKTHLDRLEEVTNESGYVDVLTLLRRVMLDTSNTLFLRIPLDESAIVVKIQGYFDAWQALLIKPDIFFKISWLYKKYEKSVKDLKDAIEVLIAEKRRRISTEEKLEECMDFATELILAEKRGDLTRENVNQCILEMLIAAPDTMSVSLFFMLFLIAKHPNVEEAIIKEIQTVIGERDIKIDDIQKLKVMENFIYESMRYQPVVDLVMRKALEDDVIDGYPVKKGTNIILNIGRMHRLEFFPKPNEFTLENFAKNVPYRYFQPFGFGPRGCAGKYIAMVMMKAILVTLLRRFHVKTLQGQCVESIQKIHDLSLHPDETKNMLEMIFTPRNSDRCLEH
The assay is described as follows: Assay of aromatase-inhibiting action (in vitro), human placental microsome, 3H2O release from [1,2-3H]androstenedione. The format is biochemical. Conditions: 2 μM [1,2-3H]androstenedione, 180 μM NADPH, pH 7.5, 37° C., 20 minutes. As to the method:
(1) Assay of aromatase-inhibiting action (in vitro)
Human placental microsome (centrifuged at 105,000×g for 60 minutes) was prepared, according to the method of Ryan (The Journal of Biological Chemistry, 234, 268-272, (1959)). The microsome was used after it was washed twice with 0.5 mM dithiothreitol solution, freeze dried, and stored at -20° C.
The aromatase-inhibiting action was assayed according to the method developed by Tompson and Siiteri (Journal of Biological Chemistry, 249, 5373-5378, (1974)). Namely, the method comprises quantitatively determining ^3 H2 O released through aromatization of [1,2-^3 H]androstenedione. The experiment using the enzyme was performed in 67 mM phosphate buffer (pH 7.5) so that the final amount of the incubation solution could be 0.5 ml. The incubation solution contained 180 μM of NADPH, 2μM of [1,2-^3 H]androstenedione, 150 μg of freeze dried human placental microsome, 25 μl of methanol and a test compound in various concentrations. Incubation was performed in the air at 37° C. for 20 minutes, the reaction was terminated with addition of 3 ml of chloroform, and the mixture was stirred for 40 seconds. The mixture was centrifuged at 700×g for 10 minutes, 0.3 ml of the aqueous solution was taken from the supernatant, the scintillation mixture was added, and the amount of ^3 H2 O formed was measured.

The mark [3] stands for this setting: 16 mg/kg DHEAS orally, once a day, rats.

pIC50: −log10 of the molar value. Counter-ions that a name gives are not always drawn.

As to `C[C@]12CC[C@H](OS(=O)(=O)O)CC1=CC[C@@H]1[C@@H]2CC[C@]2(C)C(=O)CC[C@@H]12` [DHEAS, dehydroepiandrosterone sulfate, reference compound], in the assay on aromatase [1] (setting [3]), the “Cornification of the vaginal smear with DHEAS observed from (days after the first administration)” value is recorded as 3 days and the “disappearance of the cornification action of DHEAS (days thereafter)” value is 6 days.

In general, pIC50 refers to −log10 of the IC50, conventionally taken in molar units. A higher pIC50 goes with a low IC50. Take `C[C@]12CCC(=O)C=C1C[C@@H](Sc1ccc(N)cc1)[C@@H]1[C@@H]2CC[C@]2(C)C(=O)OCC[C@@H]12` [Example 1, 7α-[(4-aminophenyl)thio]-D-homo-17-oxaandrost-4-ene-3,17a-dione]: on aromatase [2], the negative-log IC50 (pIC50) is 5.64.

In turn, `C[C@]12C=CC(=O)C=C1C[C@@H](S)[C@@H]1[C@@H]2CC[C@]2(C)C(=O)OCC[C@@H]12` [Example 16, 7α-mercapto-D-homo-17-oxaandrosta-1,4-diene-3,17a-dione] had a pIC50 at aromatase [2] of 6.30. Besides, the “Inhibition rate (cornification-inhibiting action against cornification in the solvent administration group)” value (“Inhibition rate” for short) in the assay on aromatase [1] is given as 70.6 ± 15.6%.

On to `C[C@]12CC[C@H]3[C@@H]([C@H](S)CC4=CC(=O)C=C[C@@]43C)[C@@H]1CCOC2` [Example 8, 7α-mercapto-D-homo-17-oxaandrosta-1,4-dien-3-one], for which the negative-log IC50 (pIC50) on aromatase [2] is 6.40. The “Inhibition rate” value in the assay on aromatase [1] was 68.2 ± 13.6%.

As to `CC(=O)S[C@H]1CC(=O)C=C2C[C@@H](SC(C)=O)[C@@H]3[C@H](CC[C@]4(C)C(=O)OCC[C@@H]34)[C@]21C` [Example 43, 1α,7α-bis(acetylthio)-D-homo-17-oxaandrost-4-ene-3,17a-dione], the “Inhibition rate” value in the assay with aromatase [1] came out at 70.6 ± 15.6%.

(Values after patent US5539127A, “7-substituted oxa- or azasteroid compound” (Teikoku Hormone Mfg. Co., Ltd., priority 1992, dated 1996).)
